Data from patent US20220218714A1, “METHOD OF TREATING CANCER” (Epizyme, Inc., priority 2013, published 2022).

Test system: H3K27me3 in HS-SY-II xenograft
Assay: H3K27me3 ELISA of HS-SY-II xenograft tumors harvested on Day 28
Assay type: in vivo, athymic nude mice
Settings: Day 28, 3 h after the last dose; second study
Experimental: FIGS. 10A to 10C show mean in vivo tumor volumes for athymic nude mice bearing HS-SY-II xenografts. In a first study, mice were dosed with either vehicle (oral for 28 days or iv on Day 1 and Day 22), Compound A (oral: 125 mg/kg, 250 mg/kg, or 500 mg/kg for 28 days), or Doxorubicin (iv: 10 mg/kg, Day 1 and Day 22); tumor volumes were measured twice a week (FIGS. 10A and 10B). In a second study, mice were dosed with either vehicle (oral for 28 days), Compound A (oral: 250 mg/kg or 500 mg/kg for 28 days), Doxorubicin (iv: 10 mg/kg on Day 1 and Day 22), or a combination of Doxorubicin (iv: 10 mg/kg on Day 1 and Day 22) and Compound A (oral: 250 mg/kg for 28 days) (FIG. 10C). Tumors from animals of the second study were harvested on Day 28 (3 h after the last dose) and subjected to H3K27me3 analysis by ELISA (FIG. 10D) or IHC for the proliferation marker Ki67 (FIG. 10E).
For FIG. 10D, tumors were snap-frozen in liquid nitrogen. […] Histones were quantified using the BCA protein assay (23225, Pierce). […] Subsequently, the developed colors in the wells were measured using a plate spectrophotometer (SpectraMax 250, Molecular Devices) at 450 nm (reference wavelength 650 nm). The H3K27me3 levels were adjusted to total histone H3, and expressed as fold changes to vehicle control. […] Histones were extracted and quantified, and the levels of H3K27me3 were analyzed as described above. […]

CCN(c1cc(-c2ccc(CN3CCOCC3)cc2)cc(C(=O)NCc2c(C)cc(C)[nH]c2=O)c1C)C1CCOCC1 [Compound A]
H3K27me3 levels in tumors (fold change to vehicle control): significantly reduced
